In PubChem BioAssay (NCI) one finds GI50 and TGI data, which are given here for eight molecules.

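The compound was tested at five concentrations on cells cultured in 96-well plates, with a 48-hour exposure period. GI50 is the concentration that inhibits growth by half. TGI denotes the concentration required for complete inhibition of growth.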

Test systems include HCT-116 colon; HL-60(TB) leukemia; HOP-92 NSCLC; KM12 colon; LOX IMVI melanoma; MCF7 breast; NCI-H522 lung; RXF 393 renal; SK-MEL-28 melanoma; SR leukemia.
What all share (assay): growth of human tumour cells (NCI), 48 h

Consider `Cc1ccc(C(=O)/C(=C/c2ccc([N+](=O)[O-])cc2)SCc2ccc(Cl)cc2)cc1`, for which the GI50 in the test with HCT-116 colon was 0.317 µM; in the test on HL-60(TB) leukemia, 2.35 µM; in the test on HOP-92 NSCLC it was 2.86 µM; in the test on KM12 colon, 1.91 µM; in the test with LOX IMVI melanoma it was 0.445 µM; with MCF7 breast, 0.375 µM. Also, the GI50 in the test on NCI-H522 lung is 1.64 µM; with RXF 393 renal it was 2.38 µM; in the test with SK-MEL-28 melanoma, 3.36 µM; in the test with SR leukemia it was 0.325 µM. For the same molecule, the TGI with HCT-116 colon amounted to 1.36 µM; in the test on HL-60(TB) leukemia, 7.29 µM; with HOP-92 NSCLC, 55.2 µM; in the test with KM12 colon, 5.73 µM; with LOX IMVI melanoma it was 1.65 µM; in the test on MCF7 breast, 3.08 µM. Also, the TGI with NCI-H522 lung was 3.54 µM; in the test with RXF 393 renal, 7.03 µM; in the test with SK-MEL-28 melanoma, 14.7 µM; in the test on SR leukemia, > 100 µM.
Regarding `Nc1ccccc1SC(C[N+](=O)[O-])c1ccc2c(c1)OCO2` (stereo not drawn), the TGI amounted to 3.71 µM in the test with HCT-116 colon; 4.6 µM in the test with HL-60(TB) leukemia; 30.2 µM in the test with HOP-92 NSCLC; 6.31 µM in the test with KM12 colon; 3.68 µM in the test with LOX IMVI melanoma; 12.4 µM with MCF7 breast. Moreover, the TGI in the test with NCI-H522 lung came out at 28.3 µM; in the test with RXF 393 renal, 3.33 µM; in the test on SK-MEL-28 melanoma, 11.3 µM; in the test with SR leukemia it was 4.82 µM.
For the molecule `O=C(O)CSc1ccc([N+](=O)[O-])cc1[N+](=O)[O-]`, the TGI with HCT-116 colon, in the test with HL-60(TB) leukemia, in the test on HOP-92 NSCLC, with KM12 colon, with LOX IMVI melanoma and in the test with MCF7 breast was > 100 µM in each case. For the same molecule, the TGI with NCI-H522 lung, in the test with RXF 393 renal, with SK-MEL-28 melanoma and in the test on SR leukemia was > 100 µM in each case.
`Cc1cc(I)cc(CN(C)CCCCN2CCCCC2)c1O`: the GI50 with HCT-116 colon is 8.78 µM; in the test with HL-60(TB) leukemia, 10.9 µM; in the test with HOP-92 NSCLC, 6.2 µM; in the test with KM12 colon, 13.6 µM; in the test on LOX IMVI melanoma it was 11.5 µM; with MCF7 breast, 13.6 µM. Moreover, the GI50 is 17.2 µM with NCI-H522 lung, 12.9 µM with RXF 393 renal, 4.21 µM in the test with SK-MEL-28 melanoma and 4.6 µM in the test on SR leukemia. In addition, the TGI in the test with HCT-116 colon worked out at 21.1 µM; in the test with HL-60(TB) leukemia it was 26.3 µM; with HOP-92 NSCLC it was 38.2 µM; with KM12 colon it was 31.3 µM; in the test on LOX IMVI melanoma, 24 µM; with MCF7 breast, 30 µM. In addition, the TGI came out at 38.2 µM with NCI-H522 lung, 32.6 µM in the test on RXF 393 renal, 15.8 µM in the test on SK-MEL-28 melanoma and 17.9 µM in the test with SR leukemia.
`O=C(Nc1ccccc1OC(F)(F)F)Nc1n[nH]c2ccccc12`: the GI50 is 16.2 µM in the test on HCT-116 colon; 17.9 µM with HL-60(TB) leukemia; 12.9 µM in the test with HOP-92 NSCLC; 23.4 µM with KM12 colon; 22.5 µM with LOX IMVI melanoma; 1.75 µM in the test on MCF7 breast. The GI50 with NCI-H522 lung was 33.9 µM; in the test with RXF 393 renal it was 24.4 µM; in the test on SK-MEL-28 melanoma, 42.2 µM; in the test with SR leukemia, 0.0489 µM. Besides, the TGI with HCT-116 colon is > 100 µM; in the test with HL-60(TB) leukemia it was > 100 µM; in the test with HOP-92 NSCLC it was 83.2 µM; in the test on KM12 colon, > 100 µM; in the test with LOX IMVI melanoma, > 100 µM; in the test with MCF7 breast, > 100 µM. Also, the TGI with NCI-H522 lung is > 100 µM; in the test on RXF 393 renal it was > 100 µM; with SK-MEL-28 melanoma it was > 100 µM; with SR leukemia, 24 µM.
As for `CCC(CO)Nc1nc2ccc(Cl)cc2c2ccccc12` (stereo not drawn), the GI50 with HCT-116 colon is 10.8 µM; in the test on HL-60(TB) leukemia, 7.62 µM; with HOP-92 NSCLC, 3.06 µM; with KM12 colon, 5.3 µM; in the test on LOX IMVI melanoma, 6.17 µM; with MCF7 breast it was 12.2 µM. Further, the GI50 was 8.42 µM with NCI-H522 lung, 2.3 µM with RXF 393 renal, 14.3 µM with SK-MEL-28 melanoma and 1.57 µM in the test on SR leukemia. Also, the TGI with HCT-116 colon is 22.7 µM; in the test on HL-60(TB) leukemia, 63.3 µM; in the test on HOP-92 NSCLC, 14.8 µM; with KM12 colon, 17.1 µM; in the test with LOX IMVI melanoma, 19.4 µM; in the test on MCF7 breast it was 26.1 µM. In addition, the TGI turned out to be 21.5 µM in the test with NCI-H522 lung, 5.93 µM in the test on RXF 393 renal, 27.3 µM in the test on SK-MEL-28 melanoma and 13.5 µM with SR leukemia.
Regarding `CSc1nc2c(c(=O)[nH]1)N=C1c3ccccc3C(=O)C1C(c1ccccc1)N2` (stereo not drawn), the GI50 with HCT-116 colon is 4.21 µM; in the test with HL-60(TB) leukemia it was 2.51 µM; in the test on HOP-92 NSCLC, 12 µM; in the test with KM12 colon it was 2.27 µM; in the test with LOX IMVI melanoma, 5.65 µM; in the test with MCF7 breast it was 2.4 µM. The GI50 in the test on NCI-H522 lung is 1.41 µM; in the test on RXF 393 renal, 22 µM; in the test with SK-MEL-28 melanoma, 3.73 µM; in the test with SR leukemia, 1.51 µM. In addition, the TGI is > 100 µM with HCT-116 colon; > 100 µM with HL-60(TB) leukemia; > 100 µM in the test on HOP-92 NSCLC; 37.5 µM in the test on KM12 colon; > 100 µM with LOX IMVI melanoma; > 100 µM with MCF7 breast. The TGI in the test with NCI-H522 lung is 30.4 µM; in the test with RXF 393 renal, > 100 µM; in the test on SK-MEL-28 melanoma it was > 100 µM; in the test on SR leukemia it was > 100 µM.
Take `COc1cc(-c2nn(-c3ccc(NC(=O)c4ccc(Cl)c(C(F)(F)F)c4)cc3)cc2-c2ccncc2)ccc1Cl`: the GI50 in the test with HCT-116 colon is 2.81 µM; in the test on HL-60(TB) leukemia, 3.62 µM; in the test on HOP-92 NSCLC it was 2.58 µM; with KM12 colon, 1.5 µM; with LOX IMVI melanoma it was 1.55 µM; in the test with MCF7 breast, 3.05 µM. For the same molecule, the GI50 is 0.461 µM in the test on RXF 393 renal, 2.62 µM with SK-MEL-28 melanoma and 3.2 µM with SR leukemia. Further, the TGI with HCT-116 colon is > 58.2 µM; with HL-60(TB) leukemia it was > 57.3 µM; with HOP-92 NSCLC, 8.81 µM; in the test on KM12 colon it was 4.84 µM; in the test with LOX IMVI melanoma, 3.88 µM; in the test with MCF7 breast, > 100 µM. For the same molecule, the figures for the TGI with RXF 393 renal, with SK-MEL-28 melanoma and in the test with SR leukemia were 1.61 µM, > 61.9 µM and > 37.8 µM, respectively.
